Laboratory results as given in PMC6933707, “Palmitoylethanolamide counteracts substance P-induced mast cell activation in vitro by stimulating diacylglycerol lipase activity” (Journal of Neuroinflammation, 2019).

Tests used:
human CB2 receptor = human CB2 receptor (Homo sapiens, UniProt P34972); assay: cAMP Hunter functional activity assay at the CB2 receptors; type: cell-based; design: host or cells: CHO-K1; settings: 2-AG alone, CHO-K1 cells overexpressing human CB2; read-out: IC50, reduction of NKH-477-induced cAMP levels
Sequence of human CB2 receptor (P34972 whole entry): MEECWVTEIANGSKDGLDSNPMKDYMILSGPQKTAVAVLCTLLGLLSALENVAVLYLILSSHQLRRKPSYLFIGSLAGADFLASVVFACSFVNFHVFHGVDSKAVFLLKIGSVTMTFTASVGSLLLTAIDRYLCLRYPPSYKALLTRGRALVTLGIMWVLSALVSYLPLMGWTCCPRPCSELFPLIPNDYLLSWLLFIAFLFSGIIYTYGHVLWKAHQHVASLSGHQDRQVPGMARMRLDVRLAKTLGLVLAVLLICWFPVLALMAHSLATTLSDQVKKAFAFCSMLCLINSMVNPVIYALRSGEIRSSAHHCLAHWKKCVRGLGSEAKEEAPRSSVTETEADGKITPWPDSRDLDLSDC
Procedure: The cAMP Hunter™ eXpress G protein-coupled receptor (GPCR) assay was performed in Chinese Hamster Ovary (CHO)-Kl cells overexpressing the human CB2 receptor. Gi-coupled cAMP modulation was measured following the manufacturer’s protocol (DiscoverX, Fremont, CA). CHO-K1 cells overexpressing the human CB2 receptor were plated into a 96-well plate (3× 10^4 cells/well) and incubated overnight at 37 °C in 5% CO2 atmosphere. The media were aspirated and replaced with 30 μl of assay buffer. Cells were incubated 30 min at 37 °C with 15 μl of 3× concentration-response solutions of 2-AG (0.01–50 μM), or PEA (10 μM), prepared in presence of cell assay buffer containing a 3× of 25 μM NKH-477 solution (a water-soluble analog of Forskolin) to stimulate adenylate cyclase and enhance basal cAMP levels. We also investigated the effect of PEA on 2-AG receptor activation by co-incubation. Therefore, cells were also incubated 30 min at 37 °C with 2-AG and PEA (10 μM) in the presence of NKH-477 to stimulate adenylate cyclase and enhance cAMP levels. […] Relative luminescence units (RLU) were measured by using a GloMax Multi Detection System (Promega Italia). […] The percentage of response was calculated by using the following formula: % RESPONSE = 100% × (1-(RLU of test compound-RLU of NKH-477 positive control)/(RLU of vehicle-RLU of NKH-477 positive control).

RBL-2H3 cells [1] = assay: Histamine release assay (ELISA); type: cell-based, rat
Procedure: (§1) RBL-2H3 cells were plated into 24-well culture dishes at a cell density of 2 × 10^5 cells per well, or into 6-well culture dishes at a cell density of 9 × 10^5 cells per well, for 1 day at 37 °C in 5% CO2 atmosphere. After 1 day, RBL-2H3 cells were stimulated with SP (10 μM) or vehicle (water) and incubated for 15 min at 37 °C in 5% CO2 atmosphere.
SP-stimulated RBL-2H3 cells (2 × 10^5 cells/well) were treated with PEA (10 μM) or vehicle (methanol) for 15 min at 37 °C in 5% CO2 atmosphere. SP-stimulated RBL-2H3 cells were also treated with a CB2 antagonist, AM630 (0.1 μM), in the presence and absence of PEA (10 μM), or JWH133 (0.1 μM) (a CB2 synthetic agonist), and incubated for the indicated time. SP-stimulated RBL-2H3 cells were also treated with 2-AG (0.1 and 1 μM), or co-treated with PEA (0.1 μM) and 2-AG (0.1 μM), and incubated for the indicated time. SP-stimulated RBL-2H3 cells were also co-treated with PEA (10 μM) and OMDM188 (10 μM) (a DAGL inhibitor), and incubated for the indicated time. After 15 min, the supernatants were collected and the amounts of secreted histamine were measured by using a histamine ELISA kit according to the manufacturer’s instructions (Abnova) and by using a reader GENios Pro (Tecan). Data were expressed as nanograms per milliliter of histamine.

RBL-2H3 cells [2] = assay: Toluidine blue staining, percentage of degranulation; type: cell-based, rat
Procedure: SP-stimulated RBL-2H3 cells [plated on poly-L-lysine (33 μg/ml) coated slides (Deckglaser, 21 × 26 mm) into 6-well culture dishes at a cell density of 9 × 10^5 cells per well] were treated and incubated as described above for histamine release assay. After 15 min, the cells were fixed with paraformaldehyde at 4% for 20 min and incubated for 3 min with toluidine blue at 0.01% in 3% acetic acid. Subsequently, a 5 min wash in distilled water and dehydration in increasing alcohols (90%, 100%) were performed. Cells were then clarified by treatment with Xylol for 5 min and finally dried slides were mounted with the DPX histogram upright. The cells were observed using a Leica DMI6000 digital microscope, acquired using the Leica DFC 340FX digital camera connected to the microscope and analyzed using the LAS AF 2.2.0 software. Degranulated RBL-2H3 cells were counted and the percentage of degranulation (based on the number of colorable cells) was calculated.

RBL-2H3 cells [3] = assay: as above; type: cell-based, rat; settings: compound alone 0.1 μM, in the absence of SP (data not shown)
RBL-2H3 cells [4] = assay: LC-APCI-MS measurement of endogenous AEA, 2-AG and PEA levels; type: cell-based, rat; settings: for decrease of endogenous levels of 2-AG: OMDM188 10 μM in the presence of PEA 10 μM
Procedure: RBL-2H3 cells (9 × 10^5 cells/well) were stimulated with SP (10 μM) and treated with PEA (10 μM) in the presence and absence of OMDM188 (10 μM), for 15 min at 37 °C in 5% CO2 atmosphere. After 15 min, cells and supernatants were collected and homogenized in a solution of CHCl3/CH3OH/Tris-HCl 50 mM pH 7.4 (2:1:1, v/v) containing 10 pmol of [^2H]8-AEA, [^2H]5-2-AG and [^2H]4-PEA as internal standards. The lipid-containing organic phase was dried down, weighed and pre-purified by open-bed chromatography on silica gel. Fractions obtained by eluting the column with a solution of CHCl3/CH3OH (90:10 by vol.) were analyzed by Liquid Chromatography-Atmospheric Pressure Chemical Ionization-Mass Spectrometry (LC-APCI-MS) using a Shimadzu (Shimadzu, Kyoto, Japan) HPLC apparatus (LC-10ADVP) coupled to a Shimadzu (LCMS-2020) quadrupole MS via a Shimadzu APCI interface. LC-APCI-MS analyses of 2-AG and PEA were carried out in the selected ion monitoring mode, using m/z values of 356 and 348 (molecular ions + 1 for deuterated and undeuterated AEA), 384.35 and 379.35 (molecular ions + 1 for deuterated and undeuterated 2-AG), and 304 and 300 (molecular ions + 1 for deuterated and undeuterated PEA). AEA, 2-AG and PEA levels were calculated on the basis of their area ratio with the internal deuterated standard signal areas, and their amounts (pmol) were normalized per mg of lipid extract.

RBL-2H3 cells [5] = assay: β-Hexosaminidase release assay; type: cell-based, rat; settings: substance alone 10 μM, 15 min, vs vehicle-treated cells
Procedure: as §1
SP-stimulated RBL-2H3 cells (2 × 10^5 cells/well) were treated with PEA (0.1, 0.5, 1, and 10 μM) or vehicle (methanol, max 0.1%) for 15 min at 37 °C in 5% CO2 atmosphere. After 15 min, the supernatants (15 μl) were transferred to 96-well plates and incubated with 60 μl of substrate (1 mM p-nitrophenyl-N-acetyl-β-D-glucosaminide in citrate 0.05 M, pH 4.5) for 1 h at 37 °C. To determine the total amount of released β-hexosaminidase, the cells were lysed with 0.1% Triton X-100 and incubated with substrate using the same procedure as for the determination of the activity in the supernatants. The reaction was stopped by adding 150 μl of 0.1 M sodium bicarbonate buffer (pH 10.0), and the reaction product was monitored by measuring the optical density (OD) at 405 nm by using a reader GENios Pro (Tecan). The results were expressed as % of the total β-hexosaminidase content of the cells determined by cell lysis with 0.1% Triton X-100, and calculated by using the following formula: % degranulation = [ODsupernatant/(ODsupernatant + ODtriton x−100)] × 100.

RBL-2H3 cells [6] = assay: Quantitative real-time PCR of PEA/2-AG receptors and metabolic enzymes; type: cell-based, rat; settings: cells stimulated 15 min with SP 10 μM or PEA 10 μM or both, vs unstimulated
Description: The mRNA expression of PEA target genes (Cnr1, Cnr2, Trpv1, Ppara, and Gpr55), as well as PEA and 2-AG biosynthetic (N-acyl phosphatidylethanolamine-specific phospholipase D, Napepld, Dagla and Daglb) and catabolic enzyme genes (fatty acid amide hydrolase, Faah; N-acylethanolamine-hydrolyzing acid amidase, Naaa; and monoacylglycerol lipase, Mgl), was studied by comparison of transcriptional expression in unstimulated RBL-2H3 cells (plated on 100 mm diameter Petri dishes) vs. the expression of these targets and enzymes in RBL-2H3 cells treated with PEA (10 μM), or stimulated with SP (10 μM) in the presence and absence of PEA (10 μM), for 15 min at 37 °C in 5% CO2 atmosphere. Total RNA was purified, quantified and reverse transcribed as previously reported. For each target, all mRNA sequences were aligned and common primers were designed (Table 1). Quantitative real-time PCR was performed by an iCycler-iQ5 in a 20 μl reaction mixture using 20 ng of cDNA. Assays were performed in quadruplicate (maximum ΔCt of replicate samples < 0.5). Optimized primers for SYBR-green analysis and optimum annealing temperatures were designed by the Allele-Id software version 7.0 (Biosoft International) and were synthesized (HPLC-purification grade) by MWG-Biotech. […] Results were expressed as fold expression compared with a reference condition (2^^−∆∆ct formula).

[7] = SP (10 μM)-stimulated cells, compound 0.1 μM, 15 min, vs SP + vehicle
[8] = SP (10 μM)-stimulated cells, compound 1 μM, 15 min, vs SP + vehicle
[9] = compound alone 0.1 μM, in the absence of SP (data not shown)
[10] = SP-stimulated cells treated with OMDM188 10 μM in the presence of PEA 10 μM, vs SP + vehicle

For CCCCC/C=C\C/C=C\C/C=C\C/C=C\CCCC(=O)OC(CO)CO [2-AG, 2-arachidonoylglycerol], which IC50 (human CB2 receptor) is on record?
The IC50 was 0.59 ± 0.16 µM.

What about the histamine release (RBL-2H3 cells [1]; [7]) of the same molecule?
The histamine release was “comparable”.

What about the histamine release (RBL-2H3 cells [1]; [8]) of the same molecule?
The histamine release was “able to reduce”.

And the “number of degranulated cells” value (RBL-2H3 cells [2]; [7])?
Its value is “comparable”.

What about the degranulation (RBL-2H3 cells [2]; [8]) of the same molecule?
The degranulation was “able to reduce”.

How did the histamine release (RBL-2H3 cells [1]; [7]) turn out when COc1ccc(C(=O)c2c(C)n(CCN3CCOCC3)c3cc(I)ccc23)cc1 [AM630] was run?
Its histamine release is “comparable”.

And the histamine release (RBL-2H3 cells [1]; [9])?
The histamine release was “No effect”.

What about the “number of degranulated cells” value (RBL-2H3 cells [2]; [7]) of the same molecule?
The value was “comparable”.

How did the histamine release (RBL-2H3 cells [1]; [7]) turn out when CCCC(C)(C)c1ccc2c(c1)OC(C)(C)[C@@H]1CC=C(C)C[C@@H]21 [JWH133] was run?
Its histamine release is “inhibited the release of histamine”.

What about the histamine release (RBL-2H3 cells [1]; SP-stimulated cells co-treated with JWH133 0.1 μM and AM630 0.1 μM, vs SP + vehicle) of the same molecule?
The histamine release was “comparable”.

What about the histamine release (RBL-2H3 cells [1]; [9]) of the same molecule?
Its histamine release is “No effect”.

What about the “number of degranulated cells” value (RBL-2H3 cells [2]; [7]) of the same molecule?
The value was “reduced the number of SP-degranulated RBL-2H3 cells”.

And the “number of degranulated cells” value (RBL-2H3 cells [2]; SP-stimulated cells co-treated with JWH133 0.1 μM and AM630 0.1 μM, vs SP + vehicle or SP + AM630)?
The value was “comparable”.

What about the degranulation (RBL-2H3 cells [3]) of the same molecule?
Its degranulation is “no effect”.

How did the “decrease of endogenous levels of 2-AG” value (RBL-2H3 cells [4]; SP-stimulated cells, compared to SP + PEA only) turn out when CCCCCCCCCCC[C@@H](C[C@@H]1OC(=O)[C@H]1CCCCCC)OC(=O)[C@@H](NC=O)[C@@H](C)CC [OMDM188] was run?
Its value is 2.5 fold.

What about the “decrease of endogenous levels of 2-AG” value (RBL-2H3 cells [4]; unstimulated cells, compared to PEA 10 μM alone) of the same molecule?
Its value is 2.4 fold.

And the histamine release (RBL-2H3 cells [1]; [10])?
The histamine release was “comparable”.

And the “number of degranulated cells” value (RBL-2H3 cells [2]; [10])?
The value was “comparable”.

Which results are given for substance P [SP]?
endogenous levels of AEA, 2-AG, and PEA (RBL-2H3 cells [4]; SP 10 μM for 15 min, vs vehicle): did not change; β-hexosaminidase release (RBL-2H3 cells [5]): significantly released; histamine release (RBL-2H3 cells [1]; substance alone 10 μM, 15 min, vs vehicle-treated cells): significantly released; number of degranulated cells (RBL-2H3 cells [2]; substance alone 10 μM, 15 min, vs vehicle): increased the number of degranulated RBL-2H3 cells; mRNA expression of Cnr2, Napepld, Naaa, Daglb, Faah and Mgl (RBL-2H3 cells [6]): no statistically significant change
